Tests used:
Ba/F3 SLC-ROS cells [1] = target: T1, Ba/F3 SLC-ROS cells (Homo sapiens, UniProt P08922); experiment: Cell viability (MTS) assay, Ba/F3 SLC-ROS; type: cell-based; conditions: 72 hours, read-out: IC50 (the source's name)
T1 construct: SLC-ROS-S (SLC-ROS) was cloned from cDNA made from HCC78 cells; fused on or other part: GFP is co-expressed from an IRES in pMIG and is not fused; O95436 (Sodium-dependent phosphate transport protein 2B)
Experimental: The parental Ba/F3 cell line was cultured in RPMI 1640 medium with 10% FBS, L-glutamine, penicillin/streptomycin and 15% WEHI-conditioned media. Ba/F3 cell lines were maintained at densities of 0.5×10^6 to 1.5×10^6 per ml of media. FIG-ROS and SLC-ROS Ba/F3 lines were created by infecting the parental Ba/F3 with retrovirus expressing either human FIG-ROS-S (indicated FIG-ROS herein) or SLC-ROS-S (indicated SLC-ROS herein). Stable transfectant lines were sorted for GFP expression on a FACS Aria® flow cytometer. Cells were counted daily using Guava ViaCount® reagent and Guava Personal Cell Analysis® flow cytometer. […] Early passage NIH3T3 cells were infected with retrovirus expressing either FIG-ROS or SLC-ROS and sorted for GFP expression as described above for Ba/F3 cells. HCC78 cells were cultured in RPMI 1640 medium with 10% FBS, L-glutamine, and penicillin/streptomycin. This media is referred to as RPMI-10% FBS herein.
[…]. The Ba/F3 parental line was also tested. (O'Dwyer M E and Druker B J, Lancet Oncology 1, 207-211 (2000); Walters D K et al, Cancer Cell 10, 65-75 (2006); and Heukamp L C et al, Science Translational Medicine 4, 141ra191 (2012); […].

Ba/F3 ALK F1174L cells = Ba/F3 ALK F1174L cells (Homo sapiens, UniProt Q9UM73, F1174L, cells depend on it); experiment: Cell viability (MTS) assay, Ba/F3 ALK F1174L; type: cell-based; conditions: 72 hours, read-out: IC50 (the source's name)
Ba/F3 SLC-ROS cells [2] = target: T1, Ba/F3 SLC-ROS cells; experiment: Apoptosis induction (Annexin V / 7-AAD), Ba/F3 SLC-ROS; type: cell-based; conditions: 15 nM, 48 hours
Experimental: FIG. 5A is a set of three bar graphs depicting the induction of apoptosis in Ba/F3 FIG-ROS, Ba/F3 SLC-ROS and Ba/F3 ALK F1174L cells after 48 hours of treatment with the indicated doses of the indicated compounds. The number of cells that were Annexin V and 7-AAD positive after inhibitor treatment was normalized to number of cells staining positive with these markers with vehicle treatment (basal). A minimum of 2000 cells were counted per condition. Rate of apoptosis is shown as fold over basal. Basal apoptosis in Ba/F3 FIG-ROS, Ba/F3 SLC-ROS and Ba/F3 ALK F1174 cells was 3.6%, 2.8% and 1.2% respectively.

PC9 cells = experiment: Cell viability assay, PC9; type: cell-based, human; conditions: PC9 cells (activated EGFR), FIG. 6B
Experimental: IC50 was determined from non-linear regression curve fit analysis of the dose response curves.

NIH3T3 SLC-ROS cells = experiment: Soft agar colony formation, NIH3T3 SLC-ROS; type: cell-based; conditions: at lower doses than crizotinib
Source text: The bottom panels are bar graphs indicating the number of colonies formed from the plates depicted in the top panels. The values indicate average colony number±SEM from 4 independent wells.

FIG-ROS tumors = experiment: In vivo treatment of mice bearing subcutaneous FIG-ROS cholangiocarcinoma tumors; conditions: 25 mg/kg oral gavage once daily, 9 days, immunodeficient mice; foretinib p<0.0001 for Lines 4 and 6
Experimental: Mouse chorangiocarcinoma cell lines expressing either FIG-ROS or shPten were subcutaneously injected into 11 week old female immune-deficient mice. […] Caliper measurements were taken at the time of treatment initiation and 24 hrs after administration of the last dose. Data in waterfall plots is calculated as follows: ((tumor volume Tend/tumor volume T0)−1). Caliper measurements of tumors were taken at T0 and Tend. Tumor volume is calculated as: 0.5*L*Ŵ2(L>W).
Tumors were formed by subcutaneous injection of the murine cholangiocarcinoma cell lines described above in the flanks of immunodeficient mice. […] Caliper measurements were taken at the time of treatment initiation (Ti) and 24 h after administration of the last dose (Tend).

[3] = target: Ba/F3 FIG-ROS G1971E cells (Homo sapiens, UniProt P08922, G1971E, cells depend on it); experiment: Cell viability assay, Ba/F3 FIG-ROS G1971E; type: cell-based; conditions: Table 3, Ba/F3 FIG-ROS G1971E; nM; read-out: IC50 (the source's name)
Experimental: Cell lines were distributed in 96-well plates and incubated with the indicated concentrations of inhibitor for 72 hours. […] Ba/F3 cell lines were plated at 4×10^3 cells/well. HCC78 and mCC cell lines were plated at 1.5×10^3 cells/well. All cell types were seeded in a final volume of 80 microliters. A 20 microliter volume of five-fold concentrated inhibitor media was added. Cell proliferation was measured using a […] viability assay (CellTiter96 Aqueous One® Solution; Promega). A BioTek Synergy 2® plate reader was used to read the absorbance at 490 nm at 30 minutes and 1 hour after addition of MTS. To facilitate comparison between experiments, the raw MTS absorbance of vehicle (0.1% DMSO) treated cells was set to 1 and absorbance from inhibitor treated wells was normalized to the vehicle treated value. […] Data were normalized using Microsoft Excel® and further non-linear regression curve fit analysis of the normalized data for determination of IC50 was performed using Graphpad Prism® software.
The FIG-ROS-S fusion gene was synthesized using the GeneArt® service. FIG-ROS-S is denoted as FIG-ROS herein.

SLC-ROS = SLC-ROS (Homo sapiens, UniProt P08922); experiment: Immunoblot of Ba/F3 SLC-ROS lysates; type: cell-based; design: SLC34A2 N-terminal portion, fusion partner; expressed in transfected cells; host or cells: Ba/F3 (A15), retroviral pMIG; the other entry of the earlier key: SLC34A2 (O95436, Sodium-dependent phosphate transport protein 2B); conditions: Ba/F3 SLC-ROS cells, increasing amounts, immunoblot FIG. 1C
Experimental: FIG. 1C is an image of an immunoblot of lysates of Ba/F3 FIG-ROS and Ba/F3 SLC-ROS and the indicated downstream effectors after treatment with the indicated compounds. Images shown are representative of three independent experiments.
Ba/F3 FIG-ROS, Ba/F3 SLC-ROS, HCC78 and mCC cell lines were treated with the indicated concentration of inhibitors for 1-2 hours. […] The protein content of the cell lysates was determined and lysates were either used for immunoprecipitation where indicated or extracted with SDS Sample buffer for 15 minutes at 80° C. Proteins were transferred to Immobilon-FL membranes and immunoblotted with antibodies specific for phospho-ROS1 (Cell Signaling Technology (CST) #3078), total ROS1 (CST #3266), phopsho-Shp2 (CST #3751), total Shpt (CST #3752), phospho-Stat3 (CST #9145), total Stat3 (CST #4904), phospho-Erk1/2 (CST #9101), total Erk2 (Santa Cruz #SC-1647), phospho-S6 (CST #4858), total S6 (CST #2216), phospho-Src (CST #2105), total Src (CST #2110), α-tubulin (Sigma T6199), or β-actin (Sigma A1978) as indicated. Images of the blots were generated by the LI-COR Odyssey® imaging system, following the manufacturer's protocol for immunoblot detection with use of IR-dye conjugated secondary antibodies.

COc1cc2c(Oc3ccc(NC(=O)C4(C(=O)Nc5ccc(F)cc5)CC4)cc3F)ccnc2cc1OCCCN1CCOCC1 [foretinib, N1′-[3-fluoro-4-[[6-methoxy-7-(3-morpholinopropoxy)-4-quinolyl]oxy]phenyl]-N1-(4-fluorophenyl)cyclopropane-1,1-dicarboxamide]
GI50 (Ba/F3 SLC-ROS cells [1]): 0.01 µM | GI50 (Ba/F3 ALK F1174L cells): 1.8 µM | apoptosis induction (Ba/F3 SLC-ROS cells [2]): induced apoptosis | sensitivity of cell growth (PC9 cells): relatively insensitive | anchorage-independent colony formation (NIH3T3 SLC-ROS cells): strongly suppressed | FIG-ROS tumor volume (FIG-ROS tumors): dramatically and significantly reduced | GI50 [3]: 8.69 nM | autophosphorylation of SLC-ROS and ROS1-driven signaling (phospho-Shp2, phospho-ERK1/2) (SLC-ROS): dose dependent decrease
